In brackets after ≈: the same amount, converted by molar mass. Several values for one entry are separate records, joined by “and”; a condition that tells them apart may be missing. Equal entries are not always repeated.
Legend:
[1] = biological target: T1, MDR1 (ABCB1) (Homo sapiens, UniProt P08183); test: DNDI: Efflux ratio for permeability from basolateral to apical side to apical to basolateral side of MDCK cells transfected with human MDR1; format: ADME, cell-based, Canis lupus familiaris; conditions: dog, MDCK-MDR1; read-out: Calculated Ratio
[2] = biological target: T1, MDR1 (ABCB1); test: DNDI: Apparent permeability from apical to basolateral side of the MDCK cell transfected with human MDR1after 60 mins at a concentration of 3uM; format: ADME, cell-based, Canis lupus familiaris; conditions: dog, MDCK-MDR1
[3] = DNDI: Cytotoxicity against L929 mouse fibroblasts, 72 hour.; format: toxicity, cell-based; conditions: mouse, L929 mouse fibroblasts
[4] = DNDI: Lipophilicity measured in Chromatographic hydrophobicity index (CHI) assay, pH 7.4; format: physicochemical; conditions: buffer
[5] = DNDI: Solubility in phosphate buffered saline at pH7.4 measured by nephelometry at room temperature (NEPH-RT); format: physicochemical; conditions: pH 7.4
[6] = biological target: T1, MDR1 (ABCB1); test: DNDI: % of compound recovered from apical to basolateral permeability assay in MDCK cells transfected with human MDR1 after 60 mins at a concentration of 3uM; format: ADME, cell-based, Canis lupus familiaris; conditions: dog
[7] = biological target: T1, MDR1 (ABCB1); test: DNDI: % of compound recovered from apical to basolateral permeability assay in MDCK cells transfected with human MDR1 after 60 mins at a concentration of 3uM in the presence of GF120918; format: ADME, cell-based, Canis lupus familiaris; conditions: dog, MDCK-MDR1, with GF120918 (concentration not stated)
[8] = tested on: Trypanosoma brucei; test: DNDI: Inhibition of Human African Trypanosomiasis, SBRI 427, in vitro; format: functional, organism-based
[9] = DNDI: half-life in mouse S9 microsomes at a concentration of 1uM; format: ADME, subcellular, Liver, S9 fraction
[10] = mouse, microsomes, 1 µM
Description: (§2) DNDI: in vitro intrinsic clearance in mouse liver microsomes at a concentration of 1uM

[11] = mouse, microsomes, 1 µM; remark: listed apart in the source
Description: (§3) DNDI: half life in mouse liver microsomes at a concentration of 1uM

[12] = DNDI: Cytotoxicity against L929 mouse fibroblasts, CYTO-SP, 24 hour; format: toxicity, cell-based; conditions: mouse, L929 mouse fibroblasts
[13] = tested on: Trypanosoma brucei; test: DNDI: Inhibition of Human African Trypanosomiasis, Cross 22, in vitro; format: functional, organism-based
[14] = in vitro; conditions: mouse, liver microsomes
Description: as §2

[15] = in vitro; conditions: mouse, liver microsomes, t (1 / 2)
Description: as §3

[16] = tested on: Leishmania donovani; test: DNDI: Inhibition of formation of Leishmania donovani (strain MHOM/ET/67/L82) axenic amastigotes, in vitro.; format: functional, organism-based
[17] = DNDI: half life in human liver microsomes at a concentration of 10uM; format: ADME, Microsome
[18] = tested on: Trypanosoma brucei rhodesiense; test: DNDI: Inhibition of Human African Trypanosomiasis (HAT), STIB 900, in vitro; format: functional, organism-based
[19] = tested on: Plasmodium falciparum; test: DNDI: Inhibition of the malaria parasite Plasmodium falciparum, in vitro; format: functional, organism-based; conditions: K1
[20] = DNDI: % of compound remaining in rat S9 microsomes at a concentration of 1uM; format: ADME, subcellular, Liver, S9 fraction
[21] = DNDI: Cytotoxicity against L-6 rat myoblasts from skeletal muscle cells; format: toxicity, cell-based, L6; conditions: L-6 rat skeletal muscle myoblasts
[22] = DNDI: in vitro intrinsic clearance in mouse liver microsomes at a concentration of 10uM; format: ADME, Microsome; conditions: read-out: CLint in vitro
[23] = DNDI: % of compound remaining in mouse S9 microsomes at a concentration of 1uM after 60 mins; format: ADME, subcellular, Liver, S9 fraction
[24] = tested on: Trypanosoma cruzi; test: DNDI: Inhibition of Chagas Disease parasite Trypanosoma cruzi (Tulahuen LacZ, Clone C4), in vitro.; format: functional, organism-based
[25] = DNDI: Solubility in phosphate buffered saline at pH7.4 measured by optical density (turbidimetry) at room temperature (OD-RT); format: physicochemical; conditions: pH 7.4
[26] = DNDI: in vitro intrinsic clearance in human liver microsomes at a concentration of 10uM; format: ADME, Microsome
[27] = DNDI: half life in mouse liver microsomes at a concentration of 10uM; format: ADME, Microsome
[28] = tested on: Trypanosoma brucei; test: (§1) DNDI: Mean survival time in days (MSD) of mice after intraperitoneal injection of Human African Trypanosomiasis (HAT), EATRO 110, in vivo at 20 mg/kg/day for 4 days.; format: functional, Mus musculus
[29] = tested on: Trypanosoma brucei; test: as §1; format: functional, Mus musculus; remark: listed apart in the source
[30] = in vitro; conditions: human, liver microsomes, CLint in vitro
Description: DNDI: in vitro intrinsic clearance in human liver microsomes at a concentration of 1uM

[31] = in vitro; conditions: human, liver microsomes, t (1 / 2)
Description: DNDI: half life in human liver microsomes at a concentration of 1uM

[32] = Trypanosoma brucei, SBRI 427, read-out: IC50

T1 sequence (P08183 whole entry): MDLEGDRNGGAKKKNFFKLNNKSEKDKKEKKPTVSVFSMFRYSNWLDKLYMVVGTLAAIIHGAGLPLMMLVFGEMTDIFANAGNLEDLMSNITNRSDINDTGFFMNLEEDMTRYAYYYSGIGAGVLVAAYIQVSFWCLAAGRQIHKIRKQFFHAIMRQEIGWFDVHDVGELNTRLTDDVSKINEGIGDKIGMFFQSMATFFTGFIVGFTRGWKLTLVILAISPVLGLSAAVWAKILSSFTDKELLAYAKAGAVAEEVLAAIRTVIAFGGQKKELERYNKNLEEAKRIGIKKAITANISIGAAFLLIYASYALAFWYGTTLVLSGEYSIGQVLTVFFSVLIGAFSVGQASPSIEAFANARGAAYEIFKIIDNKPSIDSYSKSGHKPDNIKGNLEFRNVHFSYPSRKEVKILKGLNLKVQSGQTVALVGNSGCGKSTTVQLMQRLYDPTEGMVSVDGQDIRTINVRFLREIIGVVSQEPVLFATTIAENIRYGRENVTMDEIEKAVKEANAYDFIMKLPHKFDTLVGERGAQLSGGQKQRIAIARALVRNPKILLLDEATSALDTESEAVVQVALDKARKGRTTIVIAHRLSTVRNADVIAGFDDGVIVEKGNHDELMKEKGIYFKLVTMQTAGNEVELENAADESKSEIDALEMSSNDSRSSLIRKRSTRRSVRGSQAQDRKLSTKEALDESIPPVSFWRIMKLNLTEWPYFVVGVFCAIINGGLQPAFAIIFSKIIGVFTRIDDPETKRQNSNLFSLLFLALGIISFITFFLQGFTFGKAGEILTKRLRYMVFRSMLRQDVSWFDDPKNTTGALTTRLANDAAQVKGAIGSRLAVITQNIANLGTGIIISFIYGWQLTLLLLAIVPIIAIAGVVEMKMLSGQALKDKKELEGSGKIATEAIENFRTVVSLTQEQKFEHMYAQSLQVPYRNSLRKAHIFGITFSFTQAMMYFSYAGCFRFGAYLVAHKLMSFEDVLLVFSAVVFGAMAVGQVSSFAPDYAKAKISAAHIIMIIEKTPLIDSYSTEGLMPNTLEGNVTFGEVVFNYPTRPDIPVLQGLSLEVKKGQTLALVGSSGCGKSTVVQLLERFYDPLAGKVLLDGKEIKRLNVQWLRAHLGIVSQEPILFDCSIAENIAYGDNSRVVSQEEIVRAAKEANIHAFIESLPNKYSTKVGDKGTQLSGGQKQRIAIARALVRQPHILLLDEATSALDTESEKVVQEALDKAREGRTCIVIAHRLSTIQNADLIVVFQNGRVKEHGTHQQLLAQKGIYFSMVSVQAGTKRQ

Structure (SMILES) | Papp A→B at 1 h, 3 µM [2] | chromatographic logD [4] | solubility kinetic [5] | recovery at 1 h, 3 µM [6] | recovery at 1 h, 3 µM [7] | IC50 [8, 32] | CLint in vitro [10] | t (1 / 2) [11] | IC50 [13] | IC50 [8] | half-life at 1 µM [15] | IC50 at 72 h [3] | IC50 at 24 h [12] | also measured
c1ccc(-c2ccc(-c3nc(CNC4CCCCCC4)co3)cc2)cc1 | – | – | – | – | – | – | 4 µL/min/mg and 10 µL/min/mg | 88 min and 237 min | 0.54 µg/mL (≈ 1.56 µM) | 0.27 µg/mL and 0.56 µg/mL and 0.41 µg/mL | – | < 3.13 µg/mL | 25.3 µg/mL (≈ 73.1 µM) | –
O/N=C(\NC1CCCCC1)c1ccccc1-c1ccccc1 | – | 4.53 | – | – | – | 0.62 µg/mL (≈ 2.11 µM) | 119 µL/min/mg | – | – | – | 7 min | > 10 µg/mL | 50 µg/mL (≈ 170 µM) | IC50 [16]: 27.6 µg/mL (≈ 93.7 µM); half-life at 10 µM [17]: 557 min; IC50 [18]: 50.4 µg/mL (≈ 171 µM); IC50 [19]: 2.78 µg/mL (≈ 9.44 µM); remaining at 1 µM [20]: 0%; IC50 [21]: 41.7 µg/mL (≈ 142 µM); microsomal CLint at 10 µM [22]: 51 µL/min/mg; remaining at 1 h, 1 µM [23]: 6.85%; IC50 [24]: 7.25 µg/mL (≈ 24.6 µM); solubility kinetic [25]: 6.3 µM (≈ 1.85 µg/mL); CLint in vitro [26]: 5 µL/min/mg; half-life at 10 µM [27]: 57 min
COc1ccccc1CNC(CCc1ccccc1)c1nc(Cc2ccccc2)c(N2CCCCC2)o1 (stereo not drawn) | – | – | 2 µM (≈ 0.991 µg/mL) | – | – | 4.41 µg/mL (≈ 8.9 µM) | 487 µL/min/mg | – | – | – | 2 min | 8.24 µg/mL (≈ 16.6 µM) | – | microsomal CLint at 1 µM [14]: 471 µL/min/mg
COc1ccc(/C(=N/O)Nc2cccc(C(F)(F)F)c2)cc1 | – | 3.67 | 25 µM (≈ 7.76 µg/mL) | – | – | – | 319 µL/min/mg | – | – | – | 3 min | 8.11 µg/mL (≈ 26.1 µM) | – | remaining at 1 µM [20]: 0%; MSD [28]: 5 days; remaining at 1 h, 1 µM [23]: 0%; MSD [29]: 5 days

Second part, led by results:

Papp A→B at 1 h, 3 µM [2] | chromatographic logD [4] | solubility kinetic [5] | recovery at 1 h, 3 µM [6] | recovery at 1 h, 3 µM [7] | IC50 [8, 32] | CLint in vitro [10] | t (1 / 2) [11] | IC50 [13] | IC50 [8] | half-life at 1 µM [15] | Structure (SMILES) | IC50 at 72 h [3] | IC50 at 24 h [12] | also measured
30.4 ×10⁻⁶ cm/s | 3.67 | 25 µM (≈ 8.76 µg/mL) | 100% | 109% | > 5 µg/mL | – | – | – | – | – | Cc1cc(NCCCn2ccnc2)n2nc(-c3cccc(F)c3)cc2n1 | > 10 µg/mL | – | efflux ratio [1]: 0.43
36.1 ×10⁻⁶ cm/s | 4.44 | 25 µM (≈ 9.24 µg/mL) | 91% | 85% | > 5 µg/mL | – | – | – | – | – | Cc1cc(NCCCN2CCOCC2)n2nc(-c3cccc(F)c3)cc2n1 | > 10 µg/mL | – | efflux ratio [1]: 0.12; half-life at 1 µM [9]: 35 min
8.84 ×10⁻⁶ cm/s | 5.2 | 25 µM (≈ 9.39 µg/mL) | 100% | 70% | 1.53 µg/mL (≈ 4.08 µM) | – | – | – | – | – | CN(C)CCNc1cc(-c2ccccc2)nc2cc(-c3ccc(F)cc3)nn12 | > 10 µg/mL | – | half-life at 1 µM [9]: > 350 min
– | – | – | – | – | – | 8 µL/min/mg | 113 min | 0.61 µg/mL (≈ 1.65 µM) | 0.39 µg/mL and 0.47 µg/mL and 1.12 µg/mL | 140 min | CCCCOc1ccc(-c2nc(CNC3CC(C)CC(C)(C)C3)co2)cc1 (stereo not drawn) | < 3.13 µg/mL | 20.9 µg/mL (≈ 56.4 µM) | microsomal CLint at 1 µM [14]: 6 µL/min/mg
– | 5.34 | < 1 µM | – | – | 0.38 µg/mL (≈ 1.11 µM) | 32 µL/min/mg and 11 µL/min/mg | 26 min and 78 min | 0.4 µg/mL (≈ 1.17 µM) | 0.3 µg/mL and 0.39 µg/mL | – | CCCCOc1ccc(-c2nc(CNC3CCCCCC3)co2)cc1 | < 3.13 µg/mL | 11.7 µg/mL (≈ 34.2 µM) | microsomal CLint at 1 µM [30]: 38 µL/min/mg; half-life at 1 µM [31]: 23 min
